Here are results for 15 compounds from PubChem BioAssay (NCI).

Test systems include RPMI-8226 leukemia; MOLT-4 leukemia; KM12 colon; HCC-2998 colon; 786-0 renal; NCI-H460 lung; CAKI-1 renal; HCT-15 colon; SF-539 CNS; UACC-62 melanoma.
Test in all cases: NCI tumour cell line growth inhibition, 48 h

“And” between values parts separate entries of the source, which are not always exact repeats. Equal entries are not always repeated.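 Cells were grown in 96-well plates and exposed to each compound for 48 hours at five concentrations; endpoints were interpolated linearly between bracketing concentrations, or set to the highest concentration if not reached. At the GI50, growth is halved. At the TGI there is no net growth.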

On to `C=CCc1cc2cccc(OC)c2oc1=O`, for which the TGI in the test with RPMI-8226 leukemia, with MOLT-4 leukemia, with KM12 colon, in the test on HCC-2998 colon, with 786-0 renal and in the test on NCI-H460 lung was more than 100 µM each time. Moreover, the TGI in the test with CAKI-1 renal, with HCT-15 colon, in the test on SF-539 CNS and with UACC-62 melanoma was more than 100 µM in each case.
Regarding `Cc1nn(C(=O)c2ccccc2O)c2c1C(c1ccccc1)SC(N)=N2` (stereo not drawn), the TGI with RPMI-8226 leukemia is 6.05 µM; in the test on MOLT-4 leukemia, more than 10 µM; in the test on KM12 colon, more than 10 µM; in the test with HCC-2998 colon it was more than 10 µM; with 786-0 renal, more than 10 µM; in the test on NCI-H460 lung, more than 10 µM. Further, the TGI is more than 10 µM with CAKI-1 renal, more than 10 µM in the test with HCT-15 colon, 0.621 µM in the test with SF-539 CNS and 9.73 µM in the test with UACC-62 melanoma.
For the compound `O=C(Nc1ccccc1C(F)(F)F)c1cccc(NC2=C(Cl)C(=O)N(Cc3ccccc3)C2=O)c1`, the GI50 with RPMI-8226 leukemia is 13.1 µM; in the test with MOLT-4 leukemia it was 4.29 µM; in the test on KM12 colon, 19.2 µM; in the test with HCC-2998 colon, 21.5 µM; in the test on 786-0 renal, 12.4 µM; with NCI-H460 lung, 3.52 µM. Moreover, the GI50 with CAKI-1 renal is 21.1 µM; in the test on HCT-15 colon, 3.8 µM; with SF-539 CNS, 12.1 µM; in the test on UACC-62 melanoma, 9.46 µM. In addition, the TGI with RPMI-8226 leukemia is more than 100 µM; with MOLT-4 leukemia it was 30.8 µM; in the test with KM12 colon it was more than 85.2 µM; in the test on HCC-2998 colon, 50.8 µM; in the test on 786-0 renal, more than 40.1 µM; in the test with NCI-H460 lung, 15.9 µM. Besides, the TGI with CAKI-1 renal was more than 67.2 µM; with HCT-15 colon, more than 24.5 µM; in the test on SF-539 CNS it was 34.8 µM; in the test on UACC-62 melanoma, 52.7 µM.
Regarding `O=c1ccn(C2OC(CO)C(O)C2O)c(=O)[nH]1` (stereo not drawn), the GI50 with RPMI-8226 leukemia was more than 1000 µM; in the test on MOLT-4 leukemia it was 832 µM and > 10 µM; in the test with KM12 colon it was more than 1000 µM; in the test on HCC-2998 colon, more than 1000 µM; with 786-0 renal it was more than 1000 µM; in the test on NCI-H460 lung it was more than 1000 µM. For the same compound, the GI50 in the test with HCT-15 colon, in the test with SF-539 CNS and in the test with UACC-62 melanoma was more than 1000 µM each time. Besides, the TGI in the test on RPMI-8226 leukemia, in the test with MOLT-4 leukemia, in the test with KM12 colon, in the test on HCC-2998 colon, in the test with 786-0 renal and with NCI-H460 lung was more than 1000 µM in each case. Further, the TGI with CAKI-1 renal, with HCT-15 colon, with SF-539 CNS and in the test on UACC-62 melanoma was more than 1000 µM throughout.
Regarding `O=C1c2cc(Br)ccc2-c2c1c1ccc([N+](=O)[O-])cc1c(=O)n2CCCCl`, the GI50 with RPMI-8226 leukemia is less than 0.0289 µM; in the test with MOLT-4 leukemia, less than 0.01 µM; in the test with KM12 colon, 0.5 µM; in the test with HCC-2998 colon, 1.55 µM; in the test on 786-0 renal, 0.659 µM; in the test with NCI-H460 lung it was less than 0.01 µM. The GI50 in the test with CAKI-1 renal is less than 0.0285 µM; with HCT-15 colon, 1.41 µM; with SF-539 CNS it was 0.182 µM; with UACC-62 melanoma, 0.0264 µM. The TGI was 0.647 µM with RPMI-8226 leukemia; more than 41.6 µM with KM12 colon; 13 µM in the test on HCC-2998 colon; 2.26 µM in the test with 786-0 renal; 5.4 µM in the test on NCI-H460 lung; 2.73 µM in the test with CAKI-1 renal. Besides, the figures for the TGI in the test on HCT-15 colon, in the test with SF-539 CNS and with UACC-62 melanoma were more than 100 µM, 3.31 µM and 1.08 µM, respectively.
With `NC(=O)c1c[se]c(C2OC(CO)C(O)C2O)n1` (stereo not drawn), the TGI with RPMI-8226 leukemia was more than 100 µM; in the test on MOLT-4 leukemia, more than 49 µM; with KM12 colon it was more than 45 µM; with HCC-2998 colon it was more than 100 µM; in the test on 786-0 renal it was more than 100 µM; in the test on NCI-H460 lung, more than 100 µM. Further, the TGI in the test with CAKI-1 renal was more than 100 µM; in the test with HCT-15 colon, more than 100 µM; with SF-539 CNS it was more than 71.8 µM; in the test with UACC-62 melanoma, more than 100 µM.
For the compound `Oc1ccc(N=Nc2ccc(Cl)cc2)cc1`, the TGI came to 80.4 µM in the test on RPMI-8226 leukemia; 51.7 µM in the test with MOLT-4 leukemia; 28.2 µM in the test with KM12 colon; 29.8 µM with HCC-2998 colon; 31.5 µM in the test on 786-0 renal; 34.2 µM with NCI-H460 lung. In addition, the TGI turned out to be 36.6 µM with CAKI-1 renal, 32.8 µM with HCT-15 colon, 36.7 µM in the test with SF-539 CNS and 36.4 µM in the test on UACC-62 melanoma.
Turning to `COc1ccc(-c2c(C3=NCCN3)nnn2-c2ccccc2)cc1`, the TGI in the test with RPMI-8226 leukemia, in the test on MOLT-4 leukemia, with KM12 colon, in the test on HCC-2998 colon, with 786-0 renal and in the test with NCI-H460 lung was more than 100 µM in each case. The TGI in the test on CAKI-1 renal, with HCT-15 colon, with SF-539 CNS and in the test with UACC-62 melanoma was more than 100 µM each time.
For `CC1=C2C(O)C(C(C)CO)C(O)CC2(C)C(O)CC1` (stereo not drawn), the TGI in the test on RPMI-8226 leukemia, in the test on MOLT-4 leukemia, in the test with KM12 colon, in the test on HCC-2998 colon, in the test on 786-0 renal and in the test with NCI-H460 lung was more than 100 µM in each case. The TGI with CAKI-1 renal, in the test with HCT-15 colon, in the test with SF-539 CNS and in the test on UACC-62 melanoma was more than 100 µM in each case.
With `COc1ccc(/C=C/c2cc(OC)c(OC)c(OC)c2)cc1NC(=O)/C=C/c1ccc(F)cc1`, the GI50 in the test with RPMI-8226 leukemia was 2.1 µM; in the test with MOLT-4 leukemia it was 4.48 µM; with KM12 colon, 2.96 µM; with HCC-2998 colon, 1.94 µM; with 786-0 renal, 4.29 µM; with NCI-H460 lung, 3.09 µM. Besides, the GI50 with CAKI-1 renal is 2.11 µM; in the test with HCT-15 colon, 4 µM; in the test with SF-539 CNS, 2.88 µM; in the test with UACC-62 melanoma, 3.32 µM. Also, the TGI is more than 100 µM with RPMI-8226 leukemia; more than 100 µM in the test on MOLT-4 leukemia; more than 100 µM with KM12 colon; more than 28.2 µM with HCC-2998 colon; more than 100 µM in the test on 786-0 renal; more than 100 µM with NCI-H460 lung. Further, the TGI with CAKI-1 renal was more than 100 µM; in the test on HCT-15 colon, more than 100 µM; in the test with SF-539 CNS, 7.86 µM; with UACC-62 melanoma, more than 100 µM.
`COc1cc(/C=C/c2cc(C(F)(F)F)[nH]c(=O)n2)ccc1OCc1ccccc1F`: the GI50 in the test with RPMI-8226 leukemia is 3.85 µM; in the test with MOLT-4 leukemia, 7.27 µM; in the test on KM12 colon it was 11.8 µM; with HCC-2998 colon, 15.5 µM; with 786-0 renal, 16.2 µM; in the test on NCI-H460 lung, 4.44 µM. Also, the GI50 is 11.3 µM in the test with CAKI-1 renal, 5.22 µM with HCT-15 colon, 3.68 µM in the test with SF-539 CNS and 7.57 µM in the test on UACC-62 melanoma. For the same compound, the TGI with RPMI-8226 leukemia was found to be 27.1 µM; in the test on MOLT-4 leukemia, 38 µM; with KM12 colon, 26.2 µM; in the test on HCC-2998 colon, 30.1 µM; in the test on 786-0 renal it was 33.1 µM; in the test on NCI-H460 lung it was 39.3 µM. The TGI with CAKI-1 renal came out at 42.3 µM; with HCT-15 colon, 28.3 µM; in the test on SF-539 CNS, 13.8 µM; in the test with UACC-62 melanoma, 21.6 µM.
As to `Cc1cc2nc3c(=O)n(C)c(=O)nc-3n(-c3ccc(Cl)cc3)c2cc1C`, the TGI in the test with RPMI-8226 leukemia was 26.4 µM; in the test on MOLT-4 leukemia, 32.8 µM; in the test with KM12 colon, more than 100 µM; in the test with HCC-2998 colon, 20.4 µM; in the test on 786-0 renal, 43.3 µM; in the test on NCI-H460 lung, 10.6 µM. The TGI turned out to be 48.8 µM with CAKI-1 renal, 21.9 µM in the test on HCT-15 colon, 25.4 µM in the test with SF-539 CNS and 10.6 µM in the test on UACC-62 melanoma.
On to `CCCCC#COP(=O)(OCC)OCC`, for which the TGI with RPMI-8226 leukemia, in the test on MOLT-4 leukemia, with KM12 colon, with HCC-2998 colon, with 786-0 renal and in the test with NCI-H460 lung was more than 100 µM throughout. For the same compound, the TGI with CAKI-1 renal, with HCT-15 colon, in the test on SF-539 CNS and with UACC-62 melanoma was more than 100 µM each time.
`O=[N+]([O-])c1ccc2[nH]cc(-c3c4ccsc4cc4[nH]c5ccc([N+](=O)[O-])cc5c34)c2c1`: the GI50 was 1.04 µM in the test on RPMI-8226 leukemia; 1.27 µM in the test on MOLT-4 leukemia; 0.77 µM in the test with KM12 colon; 1.88 µM in the test on HCC-2998 colon; 0.877 µM with 786-0 renal; 0.922 µM with NCI-H460 lung. Also, the GI50 was 0.758 µM in the test with CAKI-1 renal, 0.735 µM in the test on HCT-15 colon, 0.697 µM in the test on SF-539 CNS and 0.641 µM in the test on UACC-62 melanoma. Besides, the TGI in the test on RPMI-8226 leukemia amounted to 5.1 µM; in the test on MOLT-4 leukemia it was 5.5 µM; with KM12 colon, 4.21 µM; with HCC-2998 colon, 6.27 µM; in the test on 786-0 renal, 3.52 µM; in the test with NCI-H460 lung it was 4.13 µM. In addition, the TGI is 9.94 µM in the test with CAKI-1 renal, 9.68 µM with HCT-15 colon, 1.91 µM in the test with SF-539 CNS and 8.01 µM in the test on UACC-62 melanoma.
As for `CC1=CSC2=NC(c3ccc(Cl)c(Cl)c3)=CC(c3ccc(Cl)cc3)N12` (stereo not drawn), the GI50 in the test on RPMI-8226 leukemia, in the test with MOLT-4 leukemia, in the test on KM12 colon, in the test on HCC-2998 colon, in the test on 786-0 renal and in the test with NCI-H460 lung was more than 100 µM in each case. The GI50 in the test with CAKI-1 renal, in the test on HCT-15 colon, with SF-539 CNS and in the test on UACC-62 melanoma was more than 100 µM throughout. Besides, the TGI in the test on RPMI-8226 leukemia, in the test on MOLT-4 leukemia, in the test on KM12 colon, with HCC-2998 colon, in the test with 786-0 renal and with NCI-H460 lung was more than 100 µM in each case. The TGI with CAKI-1 renal, with HCT-15 colon, in the test with SF-539 CNS and in the test on UACC-62 melanoma was more than 100 µM throughout.
